The values that follow come from patent US8686126B2, “HBV drug resistance methods” (priority 2002, dated 2014).

The test deals with HBsAg. The test is described as follows: Serum levels of HBsAg by modified Laurell electrophoresis in HBV-infected patient No. 7. Format: in vivo. As to conditions: lamivudine treatment, just after breakthrough virus emerged. As for the experimental part:
HBsAg, anti-HBs, HBeAg, anti-HBe, and anti-HCV were determined by the microparticle enzyme-immunoassay ([…]) method (Abbott Laboratories, North Chicago, Ill., US). Anti-HDV enzyme-immunoassay method was performed as per the methodology supplied by the manufacturer (Abbott Laboratories, North Chicago, Ill., US). Serum levels of HBsAg were determined by a modified Laurell electrophoresis system (Gerlich et al., 1975). HBV-DNA levels were tested by using a commercial liquid-hybridization assay (Digene, Maryland, US), with the lower limit of detection of this assay 5 pg/mL of viral DNA.
The HBsAg level of the patient was 1.19 μg/mL at the beginning of the lamivudine treatment and became undetectable after 4 months.

The compound `Nc1ccn([C@@H]2CS[C@H](CO)O2)c(=O)n1` [lamivudine, beta-L-(−)-2′,3′-dideoxy-3′-thiacytidine] showed an HBsAg level of 10.8 µg/mL.
